# Reference: PMC7440915, “Discovery of surrogate agonists for visceral fat Treg cells that modulate metabolic indices in vivo” (eLife, 2020)
# Where no end group is shown, it is not given here.
# Test system: vTreg53 Treg cells and VAT immunocytes
# Experiment: Immunocyte composition of spleen and VAT in HFD-fed mice after vTreg53 Treg transfer and immunization
# Type: in vivo, mouse
# Source text: Figure 6. Immunization with Fat1562 expands transferred vTreg53 Treg cells and suppresses HFD-induced VAT inflammation. (A) Scheme of the transfer and immunization protocol. (B) Frequencies of CD45.2^+ cells in Treg cells (n ≥ 7). (C) Frequencies of clonotype^+ cells in transferred CD45.2^+ Treg cells (n ≥ 7). (D) Number of clonotype^+ CD45.2^+ Treg cells in the spleen (n ≥ 7). (E) Number of clonotype^+ CD45.2^+ Treg cells in the VAT (n ≥ 7). (F) Number of total Treg cells in the spleen (n ≥ 7). (G) Number of total Treg cells in VAT (n ≥ 7). (H) Numbers of eosinophils and CD11c^hi inflammatory macrophages in VAT (n ≥ 7). Data are mean ± SD. Data shown are representative of at least two independent experiments. Figure 6—figure supplement 1. Gating strategy. Gating strategy used for detection of VAT Treg cells (top) and, eosinophils or macrophage cells (bottom) by flow cytometry. [drawing 6] TEXT PRINTED IN THE PICTURE: (B) adjuvant: Spl: 0.3 (Gated on Tregs); VAT: 4 (Gated on Tregs) | (B) adjuvant/ Fat1562: Spl: 1.2 (Gated on Tregs); VAT: 53.4 (Gated on Tregs) | (C) adjuvant: Spl: 62.3 (Gated on CD45.2^+ Tregs); VAT: 94.1 (Gated on CD45.2^+ Tregs) | (C) adjuvant/ Fat1562: Spl: 94.1 (Gated on CD45.2^+ Tregs); VAT: 97.8 (Gated on CD45.2^+ Tregs) | (H) adjuvant: 9.3 (Gated on CD45.1^+); 46.3 (Gated on CD45.1^+); 41.3 (Gated on F4/80^+) | (H) adjuvant/ Fat1562: 14.5 (Gated on CD45.1^+); 39.6 (Gated on CD45.1^+); 22.6 (Gated on F4/80^+) DOUBTS OF THE COPYIST ABOUT THIS PICTURE: All values are gate numbers printed inside flow cytometry plots; no measure or unit is printed beside them, so it is uncertain whether they count as results for a substance / 'adjuvant' is the control treatment and 'adjuvant/Fat1562' the test treatment; these are treatment groups, not single compounds / Panel B, adjuvant, VAT: printed as 4, a decimal may be hidden
# Mice were asphyxiated with CO2. Epididymal VAT was excised, minced and digested for 20 min with 1.5 mg/ml collagenase type II (Sigma) in Dulbecco’s Modified Eagle’s Medium (DMEM) supplemented with 2% fetal calf serum (FCS) in a 37°C water bath with shaking. The digested materials were filtered through a sieve and then a 40 µm nylon cell strainer. The stromal vascular fraction was collected after centrifugation at 450 g for 10 min. For surface markers, cells were stained with anti-CD45.1 (A20), -CD45.2 (104), -CD3 (17A2), -CD4 (GK1.5), -TCR Vα2 (B20.1), -CD44 (IM7), -CD62L (MEL-14), -CD45 (30-F11), -CD11b (M1/70), -CD11c (N418), -F4/80 (BM8) mAbs (all from Biolegend), and anti-TCR Vβ4 (KT4), anti-Siglec-F (E50-2440) mAbs (both from BD Biosciences), as detailed in experiment descriptions. Foxp3 staining was performed using the Foxp3/Transcription Factor Staining Buffer Set and anti-Foxp3 (FJK-16s) mAb (both from eBioscience). Cells were acquired with an LSRII flow cytometer (BD Biosciences), an Accuri (BD Biosciences) or Cytoflex (Beckman Coulter). Propidium Iodide was used to distinguish live from dead cells. Assays were performed in biological duplicates or triplicates as described in the figure legends. Data were analyzed using FlowJo.
# To assess early Treg proliferation following peptide stimulation in vivo, 0.4 million Treg cells were sorted from pooled Spl and LNs of 6-8wk-old male CD45.2^+ Tg^+ Foxp3-GFP^KI/y mice by Moflo, labeled by the CellTrace Violet dye (ThermoFisher Scientific), and were i.v.-injected into 6-8wk old male B6.CD45.1^+ mice. The next day, the recipient mice were injected with 200 µg peptides emulsified in CFA (CFA/peptides) s.c. on the lower back. Proliferation of clonotype^+ Tregs in the spleen was determined three days later. To examine the expansion of VAT-Treg cells by peptide immunization, we sorted 0.4 million Treg cells from pooled Spl/LNs of 6-8wk-old male CD45.2^+ Tg^+ Foxp3-GFP^KI/y mice and transferred them i.v. into 6-8wk old male B6.CD45.1^+ mice. […]
sequence,measurement,setting,value
TMYKNPRPMAATG [Fat1562],VAT inflammation,,reduced VAT inflammation
same,expansion of adoptively transferred vTreg53 cells,,significant expansion
same,"clonotype^+ TCR-tg Treg cells, share of entire VAT-Treg pool","VAT, n ≥ 7",almost half
same,frequency of CD11c^hi pro-inflammatory macrophages in VAT,"VAT, n ≥ 7",reducing the frequency of CD11c^hi pro-inflammatory macrophages
same,proportion of eosinophils in VAT,"VAT, n ≥ 7",significantly increased the proportion of eosinophils
same,total number of VAT Treg cells,"VAT, n ≥ 7",significantly elevated
same,"donor-derived cells, share of total Treg pool in spleen","spleen, immunization with Fat1562",less than 2%
same,total number of splenic Treg cells,"spleen, n ≥ 7",did not show a significant increase
